Measurements as given in patent publication US20250186321A1, “FORMULATION USING AMINO ACID AND CARBOXYLIC ACID, ORGANIC SALT, AND COMPOSITION COMPRISING SAME AND USE THEREOF” (MIYOSHI OIL & FAT CO., LTD., priority 2021, published 2025).

Experiment: Appearance of formulation (state at 25° C.)
Assay type: physicochemical
Protocol: Formulations 1 to 427 shown in Tables 1A to 1D were prepared by the above-described method using the components (A) and (B) at the compounding molar ratios shown in the tables, and their states at 25° C. were observed.

[1] = Tables 1C-1 to 1D, compounding molar ratio (Component (A):Component (B)) 1:1
[2] = 25° C., components (A) and (B) at the compounding molar ratio shown

N[C@@H](CS)C(=O)O.O=C(O)c1ccccc1 [Formulation 320]
state at 25° C. [1]: Solid

N[C@@H](Cc1c[nH]cn1)C(=O)O.O=C(O)/C=C/c1ccccc1.O=C(O)/C=C/c1ccccc1 [Formulation 124]
state at 25° C. [2]: Solid

N[C@@H](CCC(=O)O)C(=O)O.O=C(O)c1ccccc1 [Formulation 425]
state at 25° C. [1]: Solid

NCCCC[C@H](N)C(=O)O.O=C(O)CCC(=O)O.O=C(O)CCC(=O)O [Formulation 33]
state at 25° C. [2]: Solid

N[C@@H](CC(=O)O)C(=O)O.O=C(O)CCCCC(=O)O [Formulation 401]
state at 25° C. [1]: Solid

CCC(=O)O.N[C@@H](CO)C(=O)O [Formulation 240]
state at 25° C. [2]: Solid

N[C@@H](Cc1ccccc1)C(=O)O.O=C(O)CCCCC(=O)O [Formulation 367]
state at 25° C. [1]: Solid

CCC(=O)O.N[C@@H](CC(=O)O)C(=O)O [Formulation 396]
state at 25° C. [1]: Solid

N[C@@H](Cc1c[nH]cn1)C(=O)O.O=C1O[C@H]([C@@H](O)CO)C(O)=C1O [Formulation 104]
state at 25° C. [2]: Solid

CCCCCC(=O)O.N[C@@H](CO)C(=O)O [Formulation 241]
state at 25° C. [2]: Solid

N[C@@H](CCC(=O)O)C(=O)O.O=C(O)[C@@H]1CCCN1 [Formulation 352]
state at 25° C. [1]: Solid

CCCCCC(=O)O.C[C@H](N)C(=O)O [Formulation 150]
state at 25° C. [2]: Solid

CCCCC/C=C\C/C=C\CCCCCCCC(=O)O.NCC(=O)O [Formulation 134]
state at 25° C. [2]: Solid

CCCC(=O)O.CSCC[C@H](N)C(=O)O [Formulation 327]
state at 25° C. [1]: Solid

CCC(=O)O.CSCC[C@H](N)C(=O)O [Formulation 325]
state at 25° C. [1]: Solid

CC(C)C[C@H](N)C(=O)O.CCCC(=O)O [Formulation 208]
state at 25° C. [2]: Solid

N[C@@H](CCC(=O)O)C(=O)O.N[C@@H](Cc1ccccc1)C(=O)O [Formulation 369]
state at 25° C. [1]: Solid

NCCCC[C@H](N)C(=O)O.O=C(O)CCCCC(=O)O.O=C(O)CCCCC(=O)O [Formulation 32]
state at 25° C. [2]: Solid

C[C@H](N)C(=O)O.O=C(O)CCCCC(=O)O [Formulation 157]
state at 25° C. [2]: Solid

NCC(=O)O.O=C(O)CCCCC(=O)O [Formulation 137]
state at 25° C. [2]: Solid

N=C(N)NCCC[C@H](N)C(=O)O.O=C(O)/C=C/C(=O)O.O=C(O)/C=C/C(=O)O [Formulation 77]
state at 25° C. [2]: Solid

CC(O)C(=O)O.N[C@@H](Cc1cnc[nH]1)C(=O)O [Formulation 94]
state at 25° C. [2]: Solid

CCCC(=O)O.CC[C@H](C)[C@H](N)C(=O)O [Formulation 225]
state at 25° C. [2]: Solid

N[C@@H](CS)C(=O)O.O=C(O)C(O)C(O)C(=O)O (centres unmarked) [Formulation 319]
state at 25° C. [1]: Solic

CC(C)C[C@H](N)C(=O)O.O=C(O)C[C@H](O)C(=O)O [Formulation 215]
state at 25° C. [2]: Solid

CC(=O)O.N[C@@H](Cc1c[nH]cn1)C(=O)O [Formulation 86]
state at 25° C. [2]: Solid

C[C@@H](O)[C@H](N)C(=O)O.O=C(O)CCCCC(=O)O [Formulation 262]
state at 25° C. [2]: Solid

CCCCCCCC/C=C\CCCCCCCC(=O)O.N[C@@H](Cc1c[nH]cn1)C(=O)O [Formulation 91]
state at 25° C. [2]: Solid

C[C@@H](O)[C@H](N)C(=O)O.O=C(O)C[C@H](O)C(=O)O [Formulation 266]
state at 25° C. [2]: Solid

O [Formulation 438]
state at 25° C. (25° C.): Liquid

N[C@@H](Cc1cnc[nH]1)C(=O)O.O=C(O)CCCCC(=O)O.O=C(O)CCCCC(=O)O [Formulation 116]
state at 25° C. [2]: Solid

CSCC[C@H](N)C(=O)O.O=C1O[C@H]([C@@H](O)CO)C(O)=C1O [Formulation 338]
state at 25° C. [1]: Solid

CC(O)C(=O)O.NCCCCC(N)C(=O)O (centres unmarked) [Formulation 10]
state at 25° C. [2]: Solid

N[C@@H](CO)C(=O)O.O=C(O)CCCCC(=O)O [Formulation 245]
state at 25° C. [2]: Solid

CC(C)C[C@H](N)C(=O)O.O=CO [Formulation 204]
state at 25° C. [2]: Solid

CCCC(=O)O.N[C@@H](Cc1ccccc1)C(=O)O [Formulation 364]
state at 25° C. [1]: Solid

CC(C)[C@H](N)C(=O)O.O=C(O)CC(O)(CC(=O)O)C(=O)O [Formulation 199]
state at 25° C. [2]: Solid

CC(C)[C@H](N)C(=O)O.CCC(=O)O [Formulation 189]
state at 25° C. [2]: Solid

CC[C@H](C)[C@H](N)C(=O)O.O=CO [Formulation 221]
state at 25° C. [2]: Solid

NCCCC[C@H](N)C(=O)O.O=C1O[C@H]([C@@H](O)CO)C(O)=C1O.O=C1O[C@H]([C@@H](O)CO)C(O)=C1O [Formulation 41]
state at 25° C. [2]: Solid

N[C@@H](Cc1c[nH]cn1)C(=O)O.O=C(O)CCC(=O)O [Formulation 96]
state at 25° C. [2]: Solid

CCC(=O)O.NCC(=O)O [Formulation 129]
state at 25° C. [2]: Solid

N[C@@H](CCC(=O)O)C(=O)O.N[C@@H](CS)C(=O)O [Formulation 315]
state at 25° C. [1]: Solid

CC[C@H](C)[C@H](N)C(=O)O.O=C(O)c1ccccc1 [Formulation 235]
state at 25° C. [2]: Solid

NCCCC[C@H](N)C(=O)O.O=C(O)C[C@H](O)C(=O)O [Formulation 15]
state at 25° C. [2]: Solid

CSCC[C@H](N)C(=O)O.O=C(O)CCC(=O)O [Formulation 331]
state at 25° C. [1]: Solid

CC(O)C(=O)O.N[C@@H](CS)C(=O)O [Formulation 312]
state at 25° C. [1]: Solid

CC(C)C[C@H](N)C(=O)O.O=C(O)[C@H](O)[C@@H](O)[C@H](O)[C@H](O)CO [Formulation 209]
state at 25° C. [2]: Solid

CCCCCC(=O)O.CCCCCC(=O)O.N[C@@H](Cc1cnc[nH]1)C(=O)O [Formulation 109]
state at 25° C. [2]: Solid

CCCC(=O)O.C[C@@H](O)[C@H](N)C(=O)O [Formulation 259]
state at 25° C. [2]: Solid

NCCCC[C@H](N)C(=O)O.O=C1O[C@H]([C@H](O)CO)C(O)=C1O.O=C1O[C@H]([C@H](O)CO)C(O)=C1O [Formulation 42]
state at 25° C. [2]: Solid

NCC(=O)O.O=C1O[C@H]([C@@H](O)CO)C(O)=C1O [Formulation 145]
state at 25° C. [2]: Solid

CC(=O)O.N[C@@H](CC(=O)O)C(=O)O [Formulation 395]
state at 25° C. [1]: Solid

CCCCCC(=O)O.N[C@@H](CS)C(=O)O [Formulation 309]
state at 25° C. [1]: Solid

N[C@@H](Cc1c[nH]c2ccccc12)C(=O)O.O=C(O)CCC(=O)O [Formulation 385]
state at 25° C. [1]: Solid

N=C(N)NCCC[C@H](N)C(=O)O.O=C(O)CCCCC(=O)O [Formulation 53]
state at 25° C. [2]: Solid

CC(C)[C@H](N)C(=O)O.O=C(O)C[C@H](O)C(=O)O [Formulation 198]
state at 25° C. [2]: Solid

N=C(N)NCCC[C@H](N)C(=O)O.N[C@@H](CCC(=O)O)C(=O)O.N[C@@H](CCC(=O)O)C(=O)O [Formulation 76]
state at 25° C. [2]: Solid

CC(C)[C@H](N)C(=O)O.O=C1O[C@H]([C@H](O)CO)C(O)=C1O [Formulation 203]
state at 25° C. [2]: Solid

N[C@@H](CC(=O)O)C(=O)O.O=C(O)/C=C/C(=O)O [Formulation 404]
state at 25° C. [1]: Solid

N[C@@H](Cc1ccccc1)C(=O)O.O=C(O)c1ccccc1 [Formulation 374]
state at 25° C. [1]: Solid

O=C(O)/C=C/C(=O)O.O=C(O)[C@@H]1CCCN1 [Formulation 353]
state at 25° C. [1]: Solid

N[C@@H](Cc1c[nH]c2ccccc12)C(=O)O.O=C(O)/C=C/C(=O)O [Formulation 387]
state at 25° C. [1]: Solid

CC(C)[C@H](N)C(=O)O.N[C@@H](CCC(=O)O)C(=O)O [Formulation 196]
state at 25° C. [2]: Solid

NCCCC(=O)O.O=C(O)C(O)C(O)C(=O)O (centres unmarked) [Formulation 183]
state at 25° C. [2]: Solid

CCC(=O)O.N[C@@H](Cc1c[nH]cn1)C(=O)O [Formulation 87]
state at 25° C. [2]: Solid

CCCCCC(=O)O.N[C@@H](Cc1ccccc1)C(=O)O [Formulation 363]
state at 25° C. [1]: Solid

CC(=O)O.CSCC[C@H](N)C(=O)O [Formulation 324]
state at 25° C. [1]: Solid

CC(=O)O.CC(=O)O.NCCCC[C@H](N)C(=O)O [Formulation 23]
state at 25° C. [2]: Solid

N[C@@H](CS)C(=O)O.O=C(O)CC(O)(CC(=O)O)C(=O)O [Formulation 318]
state at 25° C. [1]: Solid

NCCCC[C@H](N)C(=O)O.O=C(O)CCCCC(=O)O [Formulation 11]
state at 25° C. [2]: Solid

CCC(=O)O.N[C@@H](CCC(=O)O)C(=O)O [Formulation 413]
state at 25° C. [1]: Solid

N[C@@H](CS)C(=O)O.O=CO [Formulation 306]
state at 25° C. [1]: Solid

CCCCC/C=C\C/C=C\CCCCCCCC(=O)O.NCCCC[C@H](N)C(=O)O [Formulation 8]
state at 25° C. [2]: Solid

N[C@@H](CO)C(=O)O.O=C1O[C@H]([C@H](O)CO)C(O)=C1O [Formulation 254]
state at 25° C. [2]: Solid

N[C@@H](CCC(=O)O)C(=O)O.N[C@@H](Cc1c[nH]c2ccccc12)C(=O)O [Formulation 386]
state at 25° C. [1]: Solid

NCCCC(=O)O.O=C(O)CCC(=O)O [Formulation 178]
state at 25° C. [2]: Solid

N[C@@H](CO)C(=O)O.O=C1O[C@H]([C@@H](O)CO)C(O)=C1O [Formulation 253]
state at 25° C. [2]: Solid

CC(C)[C@H](N)C(=O)O.O=C1O[C@H]([C@@H](O)CO)C(O)=C1O [Formulation 202]
state at 25° C. [2]: Solid

N[C@@H](CS)C(=O)O.O=C(O)CCCCC(=O)O [Formulation 313]
state at 25° C. [1]: Solid

N[C@@H](CCC(=O)O)C(=O)O.O=C1O[C@H]([C@@H](O)CO)C(O)=C1O [Formulation 426]
state at 25° C. [1]: Solid

N[C@@H](Cc1c[nH]cn1)C(=O)O.O=C(O)c1ccccc1.O=C(O)c1ccccc1 [Formulation 123]
state at 25° C. [2]: Solid

NCCCC(=O)O.O=C1O[C@H]([C@H](O)CO)C(O)=C1O [Formulation 186]
state at 25° C. [2]: Solid
